The structures appear in SMILES notation. Values after ≈ are worked out from the molar mass of the structure shown. Square brackets hold non-standard residues; d marks the D form. Peptide text beside a SMILES is read from it. * marks the point of attachment. Palmitoyl = CCCCCCCCCCCCCCCC(=O)*; Dab = NCC[C@H](N)C(=O)O

The subject of series [1] is 46BR.1N human skin fibroblasts cell line. The format is cell-based. The procedure:
(§1) Cytotoxicity was determined towards immortalized human HaCaT keratinocytes (DKFZ, Heidelberg, Germany), transformed human fibroblast cell line 46BR.1N (ECACC), as well as the human melanoma (A375), human lung cancer (A549), human colon cancer (HCT-116), human colon adenocarcinoma (HT-29), and human prostate cancer (LNCaP) cell lines. Keratinocytes and fibroblast cell lines were maintained in a humidified atmosphere with 5% CO2 at 37 °C in a Dulbecco’s modified Eagle’s medium (DMEM) (Sigma-Aldrich, Steinheim, Germany), which contained 4500 mg/L of glucose, 584 mg/L of L-glutamine, sodium pyruvate, and sodium bicarbonate. Additionally, the medium was supplemented with 10% of fetal bovine serum (FBS) (Sigma-Aldrich, Steinheim, Germany), 100 U/mL of penicillin, and 100 µg/mL of streptomycin (Sigma-Aldrich, Steinheim, Germany). The cells were grown in culture dishes (BD, Franklin Lakes, NJ, USA) and the medium was changed every 2 days. Afterwards, the fibroblasts and keratinocytes were harvested using a standard trypsin-EDTA solution, centrifuged, suspended in a medium supplemented with 10% FBS and seeded at a density of 5500–6000 cells per well into 96-well plates. After 24 h, the medium was exchanged with a serum- and antibiotic-free DMEM. The next day, serially diluted solutions of the lipopeptides prepared in a fresh FBS- and antibiotic-free medium were added to the wells. The potential cytotoxic effect of the compounds was analyzed over the concentration range of 1–25 µg/mL. After addition of the lipopeptides, cells were incubated for the next 24 h. At the end of the experiment, the cells were treated with 20 µL of MTT (5 mg/mL in PBS). After 3 h at 37 °C under 5% CO2, the medium was discarded and replaced by 6 mM HCl in isopropanol. As soon as the purple crystals of formazan were completely solubilized, absorbance was read at 570 nm with a plate reader. The optical density of the wells without the tested compounds were regarded as the positive control. The MTT assay was performed in triplicate for each cell line.
(§2) Determination of the half-maximum inhibitory concentrations (IC50) was done using GraphPad Prism 5 software (San Diego, CA, USA) based on the dose-response curves. The logarithm of the different concentrations of compounds was plotted against the percentage of inhibition in cell viability as compared with control probes, treated as 100%.

The test system of series [2] is HaCaT human keratinocyte cell line. The class given is cell-based. As for the experimental part:
as §1, §2

Series [3] is described as follows: Analytical RP-HPLC retention time as measure of hydrophobicity. To be noted: Jupiter 4 µ Proteo 90 Å 250 x 4.60 mm, linear gradient 15-90% B in A in 30 min, 1 ml/min, A 0.1% aqueous TFA, B 80% acetonitrile in water with 0.1% TFA. The class given is physicochemical. As for the experimental part:
The lipopeptides were purified in a Waters RP-HPLC preparative system (Jupiter 4 µ Proteo column, 90 Å, 250 × 10 mm) with the linear gradient of solution B in A from 30% to 60% (A, 0.1% solution of TFA in water and B, 80% solution of ACN in water containing 0.1% of TFA) in 40 min with a flow rate of 5 mL/min. Final purity of the analogues (at least 97%) was determined using an analytical RP-HPLC Shimadzu system (Jupiter 4 µ Proteo column, 90 Å, 250 × 4.60 mm) with the linear gradient of solution B in A from 15% to 90% in 30 min with a flow rate of 1 mL/min. Identity of lipopeptides was confirmed by MALDI-TOF mass spectrometry. Analytical data of the synthesized analogues are presented in Table S1 (Supplementary Materials). ^a linear gradient 15-90% of B in A for 30 min, flow rate 1 ml/min, RP-HPLC Shimadzu system, column: Jupiter 4 µ Proteo, 90 Å, 250 x 4.60 mm; A – 0.1% aqueous TFA solution, B – 80% solution of acetonitrile in water with 0.1% of TFA; ^b molecular masses were determined using MALDI-TOF mass spectrometer.

Series [4] has as its system A375 human malignant melanoma cell line. The format is cell-based. As for the experimental part: (§3) In the case of evaluation of cytotoxicity towards different types of the cancer cell lines (A375, A549, HCT-116, HT-29, and LNCaP, respective cells were seeded in 96-well plates (4500 cell/well) in the RPMI-1640 medium supplemented with 5% FBS without antibiotics and incubated for 24 h before stimulation with the lipopeptides. The next day, the cells were exposed to the effect of the serially diluted compounds added at concentrations ranging from 1 to 25 µg/mL for a period of 48 h. After the treatment, cells viability was evaluated by means of MTT assays, according to standard protocol, as just described. The experiment was repeated three times for each cell line.
as §2

The test system of series [5] is HT-29 human colorectal adenocarcinoma. The class given is cell-based. As for the experimental part:
as §3, §2

The subject of series [6] is HCT-116 human colorectal carcinoma. The format is cell-based. As for the experimental part:
as §3, §2

Series [7] deals with LNCaP human prostate carcinoma. The class given is cell-based. As for the experimental part:
as §3, §2

The subject of series [8] is A549 human epithelial lung carcinoma. The class given is cell-based. The procedure:
as §3, §2

Series [9] concerns S. epidermidis. As to the kind of experiment: LIVE/DEAD SYTO9/PI bacterial viability staining, fluorescence microscopy. To be noted: 8, 16 and 32 µg/mL (1×, 2×, 4× MIC), regardless of concentration; at least two independent replicates. The class given is cell-based, Staphylococcus epidermidis. As for the experimental part: Bacteria were inoculated in the Luria–Bertani medium and cultured with shaking at 37 °C up to the early exponential phase (A600 = 0.1). Then, 1.5 mL of the cultures were transferred to 5 mL Eppendorf tubes and treated with suitable peptides added at concentrations of 1×, 2×, or 4× MIC. For the negative control, bacteria were treated with a pure vehicle (water). Next, the cells were cultured for 1 or 2 h, as indicated. To obtain a positive control, at the end of the incubation, one portion of bacteria was collected and suspended in 200 µL of 70% ethanol for 5 min. After incubation, bacteria were collected by centrifugation (10 min, 3000× g) and washed twice with 0.85% NaCl. To determine membrane integrity, bacteria were stained with a LIVE/DEAD™ BacLight™ Bacterial Viability Kit (Thermo Fisher Scientific, Waltham, MA, USA) containing two dyes, i.e., a bacterial membrane permeable SYTO9 (green fluorescence) and an impermeable propidium iodide (red fluorescence) that stains only bacteria with damaged membrane. The staining was performed according to the manufacturer instructions. Then, bacteria were collected by centrifugation and washed twice with 0.85% NaCl. Bacteria pellets were suspended in 10 µL of 0.85% NaCl. Next, 3 µL of each suspension were spotted on agarose pads, covered with coverslips and immediately imaged using fluorescence microscope (Leica DMI4000B) with 100× objective. […]

For the compound `CCCCCCCCCCCCCCCC(=O)NCCC[C@H](NC(=O)[C@@H](N)CCCCN)C(=O)N[C@@H](CCCCN)C(N)=O` [K(OC16)K-NH2], in series [1], the “IC50, 46BR.1N (24h)” value worked out at 9.02 ± 0.69 µg/mL (≈ 14.4 µM). In addition, the “IC50, HaCaT (24h)” value in series [2] came out at 6.25 ± 3.08 µg/mL (≈ 9.98 µM). Also, the “Retention time (used as measure of hydrophobicity)” value (from here on “Retention time”) in [3] was determined as 24.204 min. Besides, the “IC50, A375 (48h)” value in series [4] was determined as 21.60 ± 0.76 µg/mL (≈ 34.5 µM). Further, in series [5], the “IC50, HT-29 (48h)” value is recorded as 20.51 ± 0.41 µg/mL (≈ 32.8 µM). In series [6], the “IC50, HCT-116 (48h)” value worked out at 18.07 ± 0.54 µg/mL (≈ 28.9 µM). For the same compound, the “IC50, LNCaP (48h)” value in [7] was >25 µg/mL. The “IC50, A549 (48h)” value in series [8] is >25 µg/mL.

For `CCCCCCCCCCCCCCCC(=O)NCCCC[C@H](NC(=O)[C@H](CCCCN)NC(=O)[C@@H](N)CCCCN)C(=O)N[C@@H](CCCCN)C(=O)N[C@@H](CCCCN)C(N)=O` [KK(KC16)KK-NH2] (H-KKK(Palmitoyl)KK-NH2), in [1], the “IC50, 46BR.1N (24h)” value is reported as 7.56 ± 1.31 µg/mL (≈ 8.43 µM). Also, the “IC50, HaCaT (24h)” value in [2] is reported as 11.92 ± 1.57 µg/mL (≈ 13.3 µM). In series [9], the “membrane integrity of S. epidermidis cells (SYTO9/PI staining)” value is recorded as “stained red”. Moreover, in [3], the “Retention time” value is recorded as 21.745 min. Also, the “IC50, A375 (48h)” value in [4] is recorded as >25 µg/mL. Besides, in [5], the “IC50, HT-29 (48h)” value was found to be 18.98 ± 0.38 µg/mL (≈ 21.2 µM). Also, in [6], the “IC50, HCT-116 (48h)” value was determined as 15.98 ± 0.16 µg/mL (≈ 17.8 µM). The “IC50, LNCaP (48h)” value in series [7] was >25 µg/mL. In addition, in series [8], the “IC50, A549 (48h)” value is on record as >25 µg/mL.

`CCCCCCCCCCCCCCCC(=O)NCC[C@H](NC(=O)[C@@H](N)CCCCN)C(=O)N[C@@H](CCCCN)C(N)=O` [K(DabC16)K-NH2] (H-Lys-[Dab](Palmitoyl)-Lys-NH2): the “IC50, 46BR.1N (24h)” value in [1] was 9.76 ± 0.70 µg/mL (≈ 15.9 µM). Also, in [2], the “IC50, HaCaT (24h)” value is 7.96 ± 2.49 µg/mL (≈ 13 µM). The “Retention time” value in series [3] stood at 23.974 min. In series [4], the “IC50, A375 (48h)” value amounted to 11.99 ± 0.38 µg/mL (≈ 19.6 µM). In addition, the “IC50, HT-29 (48h)” value in [5] is listed as 21.56 ± 0.22 µg/mL (≈ 35.2 µM). Also, in [6], the “IC50, HCT-116 (48h)” value was 16.79 ± 0.34 µg/mL (≈ 27.4 µM). For the same compound, the “IC50, LNCaP (48h)” value in series [7] is reported as 14.3 ± 0.45 µg/mL (≈ 23.4 µM). Further, the “IC50, A549 (48h)” value in series [8] is listed as >25 µg/mL.

Consider `CCCCCCCCCCCCCCCC(=O)NCCCC[C@H](NC(=O)[C@@H](N)CCCCN)C(=O)N[C@@H](CCCCN)C(N)=O` [K(KC16)K-NH2], for which, in series [1], the “IC50, 46BR.1N (24h)” value was 9.36 ± 2.31 µg/mL (≈ 14.6 µM). Also, in series [2], the “IC50, HaCaT (24h)” value is 9.08 ± 2.28 µg/mL (≈ 14.2 µM). Also, in series [3], the “Retention time” value is reported as 24.731 min. Moreover, the “IC50, A375 (48h)” value in series [4] turned out to be 20.34 ± 1.47 µg/mL (≈ 31.8 µM). Also, in [5], the “IC50, HT-29 (48h)” value amounted to 21.97 ± 1.10 µg/mL (≈ 34.3 µM). Further, the “IC50, HCT-116 (48h)” value in series [6] came to 20.72 ± 0.62 µg/mL (≈ 32.4 µM). Moreover, the “IC50, LNCaP (48h)” value in series [7] is >25 µg/mL. Besides, the “IC50, A549 (48h)” value in [8] is reported as >25 µg/mL.

The values above are taken from PMC7728077, “Double-Headed Cationic Lipopeptides: An Emerging Class of Antimicrobials” (International Journal of Molecular Sciences, 2020).
